Source: paper PMC5054527, “Mechanism of high affinity inhibition of the human urate transporter URAT1” (Scientific Reports, 2016)
Positions count from the first letter of the chain named. Read-outs that look alike come from different tables or passages of the source.

What was measured:
[1] = biological target: T1, r-N35S rURAT1 point mutant (Rattus norvegicus, UniProt Q3ZAV1, N35S); test: URAT1 uric acid transport activity assay; type: cell-based; settings: for fold increased affinity of r-N35S compared to rURAT1: from IC50 values
T1 construct: expressed in transfected cells; host or cells: HEK-293T
T1 sequence (Q3ZAV1 1-553 N35S): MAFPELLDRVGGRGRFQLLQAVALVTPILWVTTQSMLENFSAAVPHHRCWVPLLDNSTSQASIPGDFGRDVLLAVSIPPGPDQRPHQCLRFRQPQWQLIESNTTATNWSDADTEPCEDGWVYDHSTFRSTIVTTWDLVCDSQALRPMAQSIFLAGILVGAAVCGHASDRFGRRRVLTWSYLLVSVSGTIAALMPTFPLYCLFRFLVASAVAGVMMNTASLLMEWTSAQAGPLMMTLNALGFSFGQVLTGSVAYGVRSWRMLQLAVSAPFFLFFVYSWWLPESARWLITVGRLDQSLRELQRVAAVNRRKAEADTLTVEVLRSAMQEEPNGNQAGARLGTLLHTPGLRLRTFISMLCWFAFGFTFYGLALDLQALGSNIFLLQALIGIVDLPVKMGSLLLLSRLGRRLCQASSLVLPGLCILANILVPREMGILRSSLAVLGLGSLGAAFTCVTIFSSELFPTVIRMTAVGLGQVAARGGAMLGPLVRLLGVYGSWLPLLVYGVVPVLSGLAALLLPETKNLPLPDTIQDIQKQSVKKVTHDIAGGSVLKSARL
Summary of the method: (§1)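 Rat URAT1 point or double mutants in pCMV6/neo were transiently transfected into cells and assayed the next day. Compounds were preincubated for 5 minutes, then 100 μM 14C-uric acid uptake was measured over 10 minutes in triplicate. IC50 came from four-parameter variable-slope nonlinear regression.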

[2] = biological target: T2, r-M354T rURAT1 point mutant (Rattus norvegicus, UniProt Q3ZAV1, M354T); test: URAT1 uric acid transport activity assay; type: cell-based
T2 construct: expressed in transfected cells; host or cells: HEK-293T
T2 sequence (Q3ZAV1 1-553 M354T): T1 sequence (Q3ZAV1 1-553 N35S) with S35N, M354T
Summary of the method: as §1

[3] = biological target: T3, r-L29M rURAT1 point mutant (Rattus norvegicus, UniProt Q3ZAV1, L29M); test: URAT1 uric acid transport activity assay; type: cell-based
T3 sequence (Q3ZAV1 1-553 L29M): T1 sequence (Q3ZAV1 1-553 N35S) with L29M, S35N
Summary of the method: as §1

rURAT1 = system: rURAT1; parameters: method as in PMID 21074513; settings: cited from earlier work
[4] = r-N35S, MES pH 5.5, 100 μM 14C-uric acid, read-out: IC50 (uric acid transport)

In the case of `O=C1C(CC[S+]([O-])c2ccccc2)C(=O)N(c2ccccc2)N1c1ccccc1` (centres unmarked) [sulfinpyrazone], the “fold increased affinity of r-N35S compared to rURAT1” value [1] is reported as 3.6 fold, the IC50 ([1]; r-N35S, HEPES pH 7.3, 100 μM 14C-uric acid, read-out: IC50 (uric acid transport)) is reported as 189 ± 32 µM and the IC50 ([2]; r-M354T, HEPES pH 7.3, 100 μM 14C-uric acid, read-out: IC50 (uric acid transport)) is reported as 304 ± 38 µM. The IC50 ([3]; r-L29M, HEPES pH 7.3, 100 μM 14C-uric acid, read-out: IC50 (uric acid transport)) was 495 ± 152 µM.

In the case of `O=c1[nH]c(=O)c2[nH]c(=O)[nH]c2[nH]1` [uric acid], the Km (rURAT1; read-out: Km for the substrate urate) is given as 1770 µM, the “fold increased affinity of r-N35S compared to rURAT1” value [1] is given as “no phenotype” and the IC50 [1, 4] is given as 2660 µM.

With `O=C(O)CSc1nnc(Br)n1-c1ccc(C2CC2)c2ccccc12` [lesinurad, 2-((5-bromo-4-(4-cyclopropylnaphthalen-1-yl)-4H-1,2,4-triazol-3-yl)thio)acetic acid] the IC50 [1, 4] was 57 ± 6.3 µM, the IC50 ([2]; r-M354T, MES pH 5.5, 100 μM 14C-uric acid, read-out: IC50 (uric acid transport)) was 56 ± 4.9 µM and the IC50 ([3]; r-L29M, MES pH 5.5, 100 μM 14C-uric acid, read-out: IC50 (uric acid transport)) was 77 ± 6.6 µM.

For `CCc1oc2ccccc2c1C(=O)c1cc(Br)c(O)c(Br)c1` [benzbromarone], the IC50 (rURAT1) is listed as 11.9 µM, the IC50 [1] is listed as 17 ± 2.1 µM and the IC50 [2] is listed as 18 ± 1.7 µM. For the same compound, the IC50 [3] was 21 ± 3.3 µM.
